For orientation: pIC50 means −log10 of the IC50, conventionally taken in molar units.

pIC50: −log10 of the molar value. Where two headings read alike, the source gives them in different places.

Consider three molecules from patent publication US20240124483A1, “Methods for the Treatment of Fibrotic Disease” (SHY Therapeutics, LLC, priority 2021, published 2024).

One assay has as its target KRas G12D mutant (Homo sapiens (Human), UniProt P01116, G12D). Put plainly: Ras GTP Binding Domain Inhibition Assay, KRas G12D mutant. The settings on record: for inhibition at 20 µM: Table 7; for KRas G12D mutant + SOS: % inh. / KRas G12D mutant: % inh.: 20 uM, Table 8. A digest of the protocol: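 Fluorescent GTP binding to plate-captured His-tagged Ras: compound 20 μM (or dilution series for IC50), 3 h RT, ±Sos GEF 10-30 μg/mL last hour; then 100 nM Cy3/Cy5-GTP 45 min RT, wash ×3, read bound label.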

For another assay, the system named is MAPK p38. Put plainly: MAPK p38 Activation Assay in Panc-1 (western blot). The class given is cell-based, Human. Details: key: Y = yes; N = No. The settings on record: at 10 μM. A digest of the protocol: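 Cells serum-starved overnight in 0.5% FBS, then compound 3 h at 37° C (10 μM or serial dilutions for IC50; 0.3% DMSO). TGF-b1 10 ng/ml stimulation followed: 1 h for Panc-1, 20 min for C2C12. Phospho-p38 (Thr180/Tyr182) measured by western blot of lysates.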
(In general: A western blot detects proteins with antibodies after separation by electrophoresis.)

Another assay deals with MiaPaca2. Description: MiaPaca2 proliferation. The note with it: Homo sapiens, MIA PaCa-2; for inhibition at 10 µM: read-out: % inh of proliferation in MiaPaca2. The class given is cell-based.
A further assay relates to Smad2/3 phosphorylation. Put plainly: Phospho-Smad2/3 Inhibition Assay in Panc-1 (western blot). The settings on record: Homo sapiens; 10 μM, 3 hours; PANC-1 stimulated with 10 ng/ml TGF-b1 for 1 hour; read-out: % inh of Smad2/3 phosphorylation in PANC-1. The assay is classed as cell-based. An outline of the steps:
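Serum-starved cells (0.5% FBS overnight) pretreated 3 h at 37 °C with compound at 10 μM or serial dilutions for IC50, in 0.3% DMSO. TGF-b1 10 ng/ml stimulation: 1 h for Panc-1 (human), 20 min for C2C12 (mouse). Phospho-Smad2 (Ser465/467) and phospho-Smad3 (Ser423/425) measured by western blot of lysates.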

Setting [1] is: + SOS, read-out: KRas G12D mutant + SOS: % inh.
Setting [2] is: without SOS, read-out: KRas G12D mutant: % inh.

KRas G12D mutant, sequence (P01116 other isoform, or with tags, fused parts or gaps G12D): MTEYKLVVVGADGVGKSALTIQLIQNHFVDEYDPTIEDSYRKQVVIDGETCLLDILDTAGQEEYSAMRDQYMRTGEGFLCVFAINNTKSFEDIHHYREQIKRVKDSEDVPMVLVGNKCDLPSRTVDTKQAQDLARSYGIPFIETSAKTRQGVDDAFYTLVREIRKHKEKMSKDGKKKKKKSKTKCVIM

`COc1cccc(-c2sc3nc(-c4nccn4C)nc(N[C@H]4C[C@H](OC)C4)c3c2C)c1F` [Compound 42, 6-(2-Fluoro-3-methoxyphenyl)-N-((1r,3r)-3-methoxycyclobutyl)-5-methyl-2-(1-methyl-1H-imidazol-2-yl)thieno[2,3-d]pyrimidin-4-amine]: the inhibition at 20 µM fell in the range of 76 to 100% at KRas G12D mutant (setting [1]) and 26 to 45% at KRas G12D mutant (setting [2]). Also, the “KRas G12D mutant + SOS: % inh.” value at KRas G12D mutant (+ SOS) is listed as “D (D = 76-100% inhibition)”. Besides, on KRas G12D mutant (without SOS), the “KRas G12D mutant: % inh.” value is reported as “B (B = 26-45% inhibition)”. Also, in the assay on MAPK p38, the “Activation of MAPK p38 in PANC-1” value is “Y”. Further, the pIC50 in the assay with MiaPaca2 is 5.00 to 5.30. Further, the inhibition at 10 µM with MiaPaca2 lay in the range of 76 to 100%; in the assay with Smad2/3 phosphorylation, 1 to 25%.
As to `COc1nccc(-c2sc3nc(-c4nccn4C)nc(N[C@H]4C[C@H](OC)C4)c3c2-c2ccccc2)c1F` [Compound 45, 6-(3-Fluoro-2-methoxypyridin-4-yl)-N-((1r,3r)-3-methoxycyclobutyl)-2-(1-methyl-1H-imidazol-2-yl)-5-phenylthieno[2,3-d]pyrimidin-4-amine], the inhibition at 20 µM at KRas G12D mutant (setting [1]) and on KRas G12D mutant (setting [2]) was 46 to 75% each time. Also, on KRas G12D mutant (+ SOS), the “KRas G12D mutant + SOS: % inh.” value is listed as “C (C = 46-75% inhibition)”. For the same molecule, the “KRas G12D mutant: % inh.” value on KRas G12D mutant (without SOS) was “C (C = 46-75% inhibition)”. In the assay on MAPK p38, the “Activation of MAPK p38 in PANC-1” value is listed as “N”. In the assay on MiaPaca2, this molecule showed a negative-log IC50 (pIC50) of 5.30 to 6.00. Also, the inhibition at 10 µM in the assay on MiaPaca2 and in the assay on Smad2/3 phosphorylation was 76 to 100% each time.
As for `COc1cc(-c2sc3nc(-c4nccn4C)nc(N[C@H]4C[C@H](OC)C4)c3c2-c2ccccc2)ccn1` [Compound 46, N-((1r,3r)-3-Methoxycyclobutyl)-6-(2-methoxypyridin-4-yl)-2-(1-methyl-1H-imidazol-2-yl)-5-phenylthieno[2,3-d]pyrimidin-4-amine], the inhibition at 20 µM at KRas G12D mutant (setting [1]) and at KRas G12D mutant (setting [2]) was 46 to 75% in each case. Moreover, the “KRas G12D mutant + SOS: % inh.” value at KRas G12D mutant (+ SOS) was “C (C = 46-75% inhibition)”. Further, at KRas G12D mutant (without SOS), the “KRas G12D mutant: % inh.” value is “C (C = 46-75% inhibition)”. In the assay with MAPK p38, the “Activation of MAPK p38 in PANC-1” value is on record as “N”. Also, the pIC50 with MiaPaca2 was 5.30 to 6.00. Besides, the inhibition at 10 µM in the assay on MiaPaca2 and with Smad2/3 phosphorylation was 76 to 100% throughout.
